{
  "source": "patent US9572895B2",
  "about": "“Multiplexed supramolecular assemblies for non-viral delivery of genetic material” (The Board of Trustees of the University of Illinois, priority 2010, dated 2017)",
  "tested_on": "plasmid DNA",
  "experiment": "Gel retardation assay on plasmid DNA",
  "type": "binding",
  "details": "various agent:DNA mass ratios, 1% agarose gel",
  "protocol": "A solution of DNA (1 μg/10 μL) was prepared in doubled distilled water. Appropriate amounts of spermine, DOS or oligoarginine dissolved in double distilled water were added to the DNA solution (10 μL) to achieve the desired spermine:DNA, DOS:DNA or Arg9:DNA weight ratio (FIGS. 6 and 7). Complexes were incubated at room temperature for 15 min, after which loading dye was added and the solution (10 μL) was run on a 1% agarose gel (70 V, 70 min). DNA was stained with ethidium bromide and visualized on a Gel Doc imaging system (Biorad, Herclues, Calif.).",
  "data": [
    {"substance": "H-Arg-Arg-Arg-Arg-Arg-Arg-Arg-Arg-Arg-OH trifluoroacetate salt [Arg9]", "values": [
      {"measurement": "electrostatic interaction with plasmid DNA (gel retardation)", "result": "confirming the electrostatic interaction"}
    ]}
  ]
}
